Common to all, as to type: biochemical
The test system of test [1] is MMP-9ΔC (catalytic domain of MMP-9). Kind of test: Selectivity studies: cleavage of FRET peptide substrates by MMP-9ΔC. Particulars: ratio of cleavage rates, substrate 20 μM. Here is the method: (§1) All proteinase assays were performed at 37 °C in a SpectraMax M5 spectrophotometer (Molecular Devices, San Jose, USA) using a 96-well black microplate (Greiner bio-one, Stonehouse, UK) unless otherwise stated. […] N-TIMP-3 was purified as described previously[30] and CT-1746 was a gift from Dr. Yoshifumi Itoh (Kennedy Institute of Rheumatology, University of Oxford). All analyses were carried out using Prism 9 software (GraphPad, La Jolla, CA, USA).
(§2) Selectivity studies are described for Abz-TESE↓SRGAIY-Dpa-KK-NH2, the library parent peptide 3, and hit peptides 18–26. A solution of Abz-TESE↓SRGAIY-Dpa-KK-NH2 (22.22 μM) in freshly prepared TNC buffer with 0.005% (v/v) Brij-35 (90 μL) was added to a 96-well clear bottom microplate (Greiner bio-one, Stonehouse, UK) in triplicate. A substrate-only background control was also added in triplicate (90 μL). The resultant solutions were incubated at 37 °C (30 min). An ADAMTS or MMP proteinase was added to substrate wells (10 μL) to give a final proteinase concentration of either 50–90 nM (TS4-4), 25–200 nM (TS5-5), 5–10 nM (MMP-2ΔC), 30 nM (MMP-9ΔC), 92 nM (MMP-1), or 3 μM (MMP-3). TNC buffer with 0.005% (v/v) Brij-35 was added to substrate-only control wells (10 μL). The relative fluorescence intensity was measured at 37 °C for 1 h with readings every 20 s. Activity was read from underneath the microplate, which was covered with a low evaporation lid. […] For each ADAMTS and MMP proteinase, the assay was performed 2–4 times. […] Final rates were expressed as a percentage of substrate cleavage by TS5-5 (mean ± SEM) or in μM s^–1 μM^–1 of proteinase.

Test [2] has as its target T1, TS4-4 (ADAMTS-4) (Homo sapiens, UniProt O75173).
T1 construct: TS4-4, TS5-5 = catalytic and disintegrin domains; made in house; host or cells: HEK293 cells (previously transfected stocks)
T1 sequence (O75173 213-519 limits assumed): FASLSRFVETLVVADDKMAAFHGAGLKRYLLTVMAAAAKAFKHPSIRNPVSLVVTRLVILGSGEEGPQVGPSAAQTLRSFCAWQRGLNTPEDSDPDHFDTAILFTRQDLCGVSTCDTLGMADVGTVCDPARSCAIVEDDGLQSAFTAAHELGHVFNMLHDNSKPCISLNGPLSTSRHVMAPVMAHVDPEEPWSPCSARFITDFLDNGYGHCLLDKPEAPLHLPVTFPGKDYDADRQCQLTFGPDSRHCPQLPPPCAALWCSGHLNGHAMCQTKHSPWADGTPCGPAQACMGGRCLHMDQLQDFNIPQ
Kind of test: Selectivity studies: cleavage of FRET peptide substrates by TS4-4. To be noted: substrate 20 μM; for preference (selectivity) for TS5-5 over TS4-4: ratio of cleavage rates; for rate of cleavage by TS4-4: TS4-4 50–90 nM, mean of 3–4 independent experiments in triplicate. As for the experimental part:
as §1, §2

The subject of test [3] is MMP-2ΔC (catalytic domain of MMP-2). Put plainly: Selectivity studies: cleavage of FRET peptide substrates by MMP-2ΔC. Particulars: substrate 20 μM; for preference (selectivity) for TS5-5 over MMP-2ΔC: ratio of cleavage rates. As for the experimental part:
as §1, §2

In test [4] the target is T2, TS5-5 (ADAMTS-5) (Homo sapiens, UniProt Q9UNA0).
T2 construct: ADAMTS-5 (i.e. TS5-5, residues 264–555); FLAG; made in house; host or cells: HEK293 cells (previously transfected stocks)
T2 sequence (Q9UNA0 264-555): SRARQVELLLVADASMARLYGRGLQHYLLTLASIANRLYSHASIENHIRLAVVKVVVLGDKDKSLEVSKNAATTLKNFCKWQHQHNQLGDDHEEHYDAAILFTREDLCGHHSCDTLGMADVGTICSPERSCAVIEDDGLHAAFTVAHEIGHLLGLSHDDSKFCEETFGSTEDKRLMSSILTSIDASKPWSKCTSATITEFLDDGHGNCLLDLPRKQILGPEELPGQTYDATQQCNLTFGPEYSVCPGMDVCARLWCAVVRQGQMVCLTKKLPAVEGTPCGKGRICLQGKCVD
Kind of test: Rate of cleavage of 3 and 26 by TS5-5 at different substrate concentrations. Particulars: TS5-5 57 nM, after 1 h, 37 °C. Here is the method: To test whether active TS5-5 had been purified, three concentrations of proteinase were assayed. […] A substrate-only background control was also added in triplicate (180 μL). The resultant solutions were incubated at 37 °C (30 min). […] TNC buffer with 0.02% (v/v) Brij-35 (20 μL) was also added to background control wells. The change in RFU was measured at 37 °C for 1 h, with readings every 20 s. Following subtraction of background fluorescence intensity, linear regression analysis of the linear part of each curve was used to determine the cleavage rate, which was expressed as the mean ± SEM in RFU s^–1. For cases where a single concentration of TS5-5 or TS4-4 was assayed, the same procedure was used but with 0.005% (v/v) Brij-35 and using the 5-FAM-AE↓LQGRPISIAK-TAMRA substrate for TS4-4 (0.56 μM). To convert cleavage rates to nM s^–1 nM^–1, the rate in RFU s^–1 was divided by the final concentration of proteinase (nM), then divided by the gradient of the calibration curve for Abz or 5-FAM (expressed in RFU nM^–1).
This was carried out according to the procedure described for activity studies of ADAMTSs with a single concentration of proteinase, except that a range of substrate concentrations was used for 3 and 26 (20 to 0.63 μM). Additionally, control wells for each substrate concentration were used in single replicate. The final concentration of TS5-5 was 57 nM.

The mark [5] stands for this setting: TNC buffer with 0.005% (v/v) Brij-35, 37 °C, mean of 2–8 independent experiments in triplicate.
The mark [6] stands for this setting: TNC buffer with 0.005% (v/v) Brij-35, 37 °C.

Non-standard residues stand in square brackets, D forms with d. No end group written: not given here. Tyr(3-NO2) = N[C@@H](Cc1ccc(O)c([N+](=O)[O-])c1)C(=O)O; 2Abz = Nc1ccccc1C(=O)O

With “Abz-TESE↓SRGAIY-Dpa-KK-NH2 [current, ortho-aminobenzoyl(Abz)-TESE↓SRGAIY-N-3-[2,4-dinitrophenyl]-L-2,3-diaminopropionyl(Dpa)-KK-NH2, reference compound]”, in test [1], the “preference (selectivity) for TS5-5 over MMP-9ΔC” value is ~213 fold. In addition, in test [2], the “preference (selectivity) for TS5-5 over TS4-4” value is recorded as ~5 fold. Besides, the “cleavage by TS4-4 as a fraction (percentage) of TS5-5 cleavage of the current substrate” value in test [2] (setting [5]) amounted to 22%. The “rate of cleavage by TS4-4” value in test [2] (setting [6]) is on record as 0.090 μM s^–1 μM^–1. In addition, the “preference (selectivity) for TS5-5 over MMP-2ΔC” value in test [3] was ~0.7 fold. In addition, the “cleavage by MMP-2ΔC as a fraction (percentage) of TS5-5 cleavage of the current substrate” value in test [3] (setting [5]) was found to be 138%.
As to “KY(NO2)SENESRGK(Abz)IYYKKG (K[Tyr(3-NO2)]SENESRGK(2Abz)IYYKKG) [Compound 26]”, the “preference (selectivity) for TS5-5 over MMP-9ΔC” value in test [1] is recorded as ~548 fold. For the same substance, the “lowest concentration of substrate detectibly cleaved by TS5-5 (ΔRFU ≥ 300)” value in test [4] is 5 µM. Besides, in test [2], the “preference (selectivity) for TS5-5 over TS4-4” value is recorded as ~13 fold. For the same substance, the “rate of cleavage by TS4-4” value in test [2] (setting [6]) is 0.08–0.10 μM s^–1 μM^–1. Also, the “preference (selectivity) for TS5-5 over MMP-2ΔC” value in test [3] was ~8 fold.
Consider “KY(NO2)TESESRGK(Abz)IYYKKG (K[Tyr(3-NO2)]TESESRGK(Abz)IYYKKG) [Compound 3]”, for which the “preference (selectivity) for TS5-5 over MMP-9ΔC” value in test [1] is given as ~2561 fold. Moreover, the “lowest concentration of substrate detectibly cleaved by TS5-5 (ΔRFU ≥ 300)” value in test [4] is 2.5 µM. The “preference (selectivity) for TS5-5 over TS4-4” value in test [2] is recorded as ~16 fold. Further, in test [2] (setting [6]), the “rate of cleavage by TS4-4” value is 0.08–0.10 μM s^–1 μM^–1. Also, in test [3], the “preference (selectivity) for TS5-5 over MMP-2ΔC” value is ~10 fold.

The values above are taken from PMC10009750, “Development of Selective ADAMTS-5 Peptide Substrates to Monitor Proteinase Activity” (Journal of Medicinal Chemistry, 2023).
